Experimental data taken from ChEMBL document CHEMBL1130030, “Tyrosine kinase inhibitors. 11. Soluble analogues of pyrrolo- and pyrazoloquinazolines as epidermal growth factor receptor inhibitors: synthesis, biological evaluation, and modeling of the mode of binding” (J Med Chem, 1997).

How the values were obtained:
[1] = target: T1, Epidermal growth factor receptor (Homo sapiens, UniProt P00533); assay: Inhibition of the phosphorylation of a random polyglutamic acid/tyrosine copolymer by human epidermal growth factor receptor(EGFR) prepared from human A431 carcinoma cells
[2] = target: T1, Epidermal growth factor receptor; assay: Inhibition of autophosphorylation of epidermal growth factor receptor prepared from human A431 carcinoma cells.

T1 sequence (P00533 whole entry): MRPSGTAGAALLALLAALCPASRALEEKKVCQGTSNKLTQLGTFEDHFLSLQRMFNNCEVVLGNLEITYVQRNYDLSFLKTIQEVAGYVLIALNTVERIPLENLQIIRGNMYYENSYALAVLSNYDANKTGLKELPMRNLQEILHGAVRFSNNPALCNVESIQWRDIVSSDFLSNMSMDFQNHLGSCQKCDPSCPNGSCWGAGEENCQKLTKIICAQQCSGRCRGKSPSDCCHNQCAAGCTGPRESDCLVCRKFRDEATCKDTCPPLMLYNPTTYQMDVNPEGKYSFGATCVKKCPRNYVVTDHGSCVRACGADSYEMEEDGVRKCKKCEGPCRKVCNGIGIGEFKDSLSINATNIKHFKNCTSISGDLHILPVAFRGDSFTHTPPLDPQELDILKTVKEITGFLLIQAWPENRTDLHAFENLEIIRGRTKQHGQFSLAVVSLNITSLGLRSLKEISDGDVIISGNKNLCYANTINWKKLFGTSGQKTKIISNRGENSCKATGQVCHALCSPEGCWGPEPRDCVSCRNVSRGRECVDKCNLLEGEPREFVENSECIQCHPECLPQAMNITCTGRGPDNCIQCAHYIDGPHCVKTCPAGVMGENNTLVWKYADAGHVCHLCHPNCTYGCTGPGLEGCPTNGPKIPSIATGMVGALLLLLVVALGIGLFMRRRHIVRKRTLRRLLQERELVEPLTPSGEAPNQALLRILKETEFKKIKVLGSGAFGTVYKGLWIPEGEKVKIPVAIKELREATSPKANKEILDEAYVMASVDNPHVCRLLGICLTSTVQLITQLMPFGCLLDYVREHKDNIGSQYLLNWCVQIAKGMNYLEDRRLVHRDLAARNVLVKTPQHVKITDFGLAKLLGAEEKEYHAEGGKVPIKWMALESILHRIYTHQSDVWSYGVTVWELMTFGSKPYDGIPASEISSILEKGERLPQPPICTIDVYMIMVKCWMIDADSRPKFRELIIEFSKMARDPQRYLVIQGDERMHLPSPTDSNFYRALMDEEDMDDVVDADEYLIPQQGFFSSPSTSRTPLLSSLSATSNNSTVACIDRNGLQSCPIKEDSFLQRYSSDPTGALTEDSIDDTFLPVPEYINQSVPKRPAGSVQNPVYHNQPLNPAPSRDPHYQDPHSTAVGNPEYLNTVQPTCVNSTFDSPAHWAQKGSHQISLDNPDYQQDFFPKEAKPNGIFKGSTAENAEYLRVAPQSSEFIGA

| Compound | IC50 [1] [nM] | IC50 [2] [nM] |
| --- | --- | --- |
| Brc1cccc(Nc2ncnc3cc4c(cnn4CCCN4CCOCC4)cc23)c1 | 8.8 | 77 |
| Cc1nc(Nc2cccc(Br)c2)c2ccccc2n1 | > 10000 | – |
| COC(=O)CN(C)Cc1c[nH]c2cc3ncnc(Nc4cccc(Br)c4)c3cc12 | 3.4 | 9.6 |
| Brc1cccc(Nc2ncnc3cc4[nH]ncc4cc23)c1 | – | 20 |
| COc1cccc2c(Nc3cccc(Br)c3)ncnc12 | > 10000 | – |
| Brc1cccc(Nc2ncnc3cc4c(ccn4CCN4CCOCC4)cc23)c1 | 3.7 | 16 |
| Cn1ccc2cc3c(Nc4cccc(Br)c4)ncnc3cc21 | 0.8 | 22 |
| Cn1ncc2cc3c(Nc4cccc(Br)c4)ncnc3cc21 | 0.37 | 13 |
| Brc1cccc(Nc2ncnc3cc4[nH]cc(CN5CCOCC5)c4cc23)c1 | 4.8 | 9.6 |
| CN(C)CCCn1ccc2cc3c(Nc4cccc(Br)c4)ncnc3cc21 | 21 | 230 |
| OCC(O)Cn1ccc2cc3c(Nc4cccc(Br)c4)ncnc3cc21 (configuration not stated) | 1.6 | 49 |
| CN(CC(=O)O)Cc1c[nH]c2cc3ncnc(Nc4cccc(Br)c4)c3cc12 | 0.72 | 584 |
| CN(C)Cc1c[nH]c2cc3ncnc(Nc4cccc(Br)c4)c3cc12 | 2.6 | 9.7 |
| Brc1cccc(Nc2nccc3ccccc23)c1 | > 100000 | – |
| OCC(O)Cn1ncc2cc3c(Nc4cccc(Br)c4)ncnc3cc21 (configuration not stated) | 12 | 318 |
| CN(C)CCN(C)Cc1c[nH]c2cc3ncnc(Nc4cccc(Br)c4)c3cc12 | 7.5 | 81 |
| OCCN(CCO)Cc1c[nH]c2cc3ncnc(Nc4cccc(Br)c4)c3cc12 | 3.5 | 135 |
| CN(C)CCn1ncc2cc3c(Nc4cccc(Br)c4)ncnc3cc21 | 40 | 262 |
| O=C(O)Cn1ccc2cc3c(Nc4cccc(Br)c4)ncnc3cc21 | 5.1 | 1780 |
| Brc1cccc(Nc2ncnc3cc4[nH]ccc4cc23)c1 | – | 22 |
| CN(C)CCn1ccc2cc3c(Nc4cccc(Br)c4)ncnc3cc21 | 41 | 145 |
